In patent US20120142766A1, “SUBSTITUTED 1,3-DIOXANES AND THEIR USES” (EVOLVA SA, priority 2007, published 2012):
pIC50, pKi: −log10 of the molar value. Values joined by “and” are separate entries in the source; they are usually repeats but may differ in a detail not shown here. Identical values can stand only once.

How the values were obtained:
KKA^y mice = experiment: KKAy mice on high fat diet, 14-day oral gavage BID; type: in vivo, mouse
Description: 52 male KKA^y mice are obtained commercially (e.g., from Clea Japan) at an age of 6 weeks and put on a high fat diet upon arrival. Individual mice were housed in IVC Type II cages during both the acclimatization and the experimental phase. Both food (high fat diet) and water are supplied ad libitum.
1 animal per cage. […] Lights on at 06:00 a.m. Temperature: 21-25° C. Relative humidity target range: 55-60%.
Mice were randomized into treatment groups according to their 4-h fasting blood glucose.
4 hours after the last administration, non-fasting conditions.
Gamma irradiated high fat diet is commercially available (e.g., Research Diets, Inc. New Brunswick, N.J. (Product # D12266BI)).
Blood is collected into heparin containing glass capillaries which are subsequently centrifuged in a “Haematokrit 24” centrifuge (Hettich) at 15′200×g for 10 minutes at room temperature to obtain the hematocrit value.
The following serum parameters are determined on a COBAS INTEGRA 800 auto analyzer (Roche Diagnostics, Switzerland) using the reagents and protocols provided by the supplier.
All measurements are made on Day 14 of administration, except for the food intake and body weight measurements that are made on Day 12.

Thromboxane synthase = molecular target: T1, Thromboxane synthase (Homo sapiens, UniProt P24557); experiment: Human platelet thromboxane synthase assay; type: biochemical; conditions: 10 μM
T1 construct: Human Platelet Thromboxane Synthase Assay; from tissue; host or cells: human platelets
T1 sequence (P24557 1-533): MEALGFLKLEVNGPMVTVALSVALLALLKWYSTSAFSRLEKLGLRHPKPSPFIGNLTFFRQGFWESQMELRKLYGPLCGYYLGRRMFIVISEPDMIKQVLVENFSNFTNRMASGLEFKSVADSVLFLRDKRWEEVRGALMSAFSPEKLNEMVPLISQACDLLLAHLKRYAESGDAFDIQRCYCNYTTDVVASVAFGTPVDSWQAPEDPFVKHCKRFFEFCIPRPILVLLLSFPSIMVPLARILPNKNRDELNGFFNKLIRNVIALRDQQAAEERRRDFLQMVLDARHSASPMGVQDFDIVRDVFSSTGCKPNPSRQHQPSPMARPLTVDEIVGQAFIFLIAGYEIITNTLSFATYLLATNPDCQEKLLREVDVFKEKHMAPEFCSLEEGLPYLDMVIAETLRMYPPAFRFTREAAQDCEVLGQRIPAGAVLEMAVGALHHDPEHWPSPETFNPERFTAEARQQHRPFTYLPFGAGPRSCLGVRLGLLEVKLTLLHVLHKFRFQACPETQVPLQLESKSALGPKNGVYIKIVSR
Description: The compounds were tested for thromboxane synthase inhibition essentially as described by Borsch-Haubold A G, Pasquet S, Watson S P. (1998) Direct inhibition of cyclooxygenase-1 and -2 by the kinase inhibitors SB 203580 and PD 98059. […] 1. Imidazole derivatives. J Med. Chem. (10):1139-48 according to the following:
Pre-incubation time, temp: 15 minutes at 25° C. Incubation time, temp: 3 minutes at 25° C.
Incubation Buffer: 10 mM Tris-HCl, pH 7.4
Quantification Method: EIA quantification of TxB2

[1] = tested on: Human platelet rich plasma; experiment: TP receptor platelet aggregation, human (U-46619-induced); type: cell-based; conditions: 3 μM U-46619-induced
Description: Thrombosis Research 33:277-288.
TP Receptor Platelet Aggregation—Human:
Human (60±10 kg) platelet rich plasma
Assay. Inhibition of 3 μM U-46619-induced platelet aggregation Incubation Time, Temp: 5 minutes at 37° C. Incubation Buffer Trisodium Citrate (0.13 M)-treated fresh platelet rich plasma
Time of Assessment: 5 minutes
Quantification Method Optical Density Change

[2] = molecular target: T2, Human Recombinant (E. coli) PPARgamma (Homo sapiens, UniProt P37231); experiment: PPAR gamma binding assay ([3H]-rosiglitazone); conditions: [3H]-rosiglitazone 10 nM
T2 construct: host or cells: E. coli
T2 sequence (P37231 1-505): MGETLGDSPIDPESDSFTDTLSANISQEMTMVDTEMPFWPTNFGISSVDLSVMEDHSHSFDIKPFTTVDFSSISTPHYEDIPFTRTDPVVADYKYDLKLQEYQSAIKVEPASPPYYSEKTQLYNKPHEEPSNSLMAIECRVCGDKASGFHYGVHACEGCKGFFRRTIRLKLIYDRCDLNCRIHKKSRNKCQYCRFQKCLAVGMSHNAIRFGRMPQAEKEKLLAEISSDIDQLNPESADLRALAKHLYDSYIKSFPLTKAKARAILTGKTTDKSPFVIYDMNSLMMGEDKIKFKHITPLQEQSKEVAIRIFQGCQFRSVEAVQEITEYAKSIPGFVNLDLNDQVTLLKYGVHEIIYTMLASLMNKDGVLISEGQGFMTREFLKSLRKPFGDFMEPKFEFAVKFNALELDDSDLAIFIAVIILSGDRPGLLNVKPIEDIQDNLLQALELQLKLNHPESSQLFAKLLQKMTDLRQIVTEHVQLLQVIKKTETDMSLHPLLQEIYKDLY
Description: Incubation: 120 min. at 4° C.
The results are expressed as a percent of control specific binding ((measured specific binding/control specific binding)×100) obtained in the presence of the test compounds. The IC50 values (concentration causing a half-maximal inhibition of control specific binding) and Hill coefficients (nil) were determined by non-linear regression analysis of the competition curves generated with mean replicate values using Hill equation curve fitting (Y=D+[(A−D)/(1+(C/C50)nH)], where Y=specific binding, D=minimum specific binding, A=maximum specific binding, C=compound concentration, C50=IC50, and nH=slope factor). This analysis was performed using a software developed at Cerep (Hill software) and validated by comparison with data generated by the commercial software SigmaPlot® 4.0 for Windows® (© 1997 by SPSS Inc.). The inhibition constants (Ki) were calculated using the Cheng Prusoff equation (Ki=IC50/(1+(L/KD)), where L=concentration of radioligand in the assay, and KD=affinity of the radioligand for the receptor).

[3] = 53 mg/kg BID oral gavage, Day 12, mean ± S.E.M.
[4] = 53 mg/kg BID oral gavage, Day 14, mean ± S.E.M.
[5] = 14-day BID, enoic acid 53 mg/kg, rosiglitazone 5 mg/kg, Compounds 3 and 13 dose not stated

O=C(O)CC/C=C\C[C@@H]1CO[C@H](c2ccccc2Cl)O[C@@H]1c1ccccc1O [Compound C, (Z)-6-((2S,4S,5R)-2-(2-chlorophenyl)-4-(2-hydroxyphenyl)-1,3-dioxan-5-yl)hex-4-enoic acid]
Body Weight (KKA^y mice; [3]): 45.4 ± 1.0 g
Food Intake (KKA^y mice; [3]): 5.0 ± 0.6 g/day
ALP (KKA^y mice; [4]): 21.5 ± 1.6 dU/L
ALT (KKA^y mice; [4]): 5.1 ± 0.6 dU/L
AST (KKA^y mice; [4]): 7.7 ± 1.0 dU/L
FFA (KKA^y mice; [4]): 1.7 ± 0.3 mM
Fructosamine (KKA^y mice; [4]): 0.41 ± 0.03 mM
HDL (KKA^y mice; [4]): 3.1 ± 0.2 mM
HbA1C (KKA^y mice; [4]): 7.8 ± 0.3 %
Heart weight (KKA^y mice; [4]): 208.5 ± 7.6 mg
Hematocrit (KKA^y mice; [4]): 40.1 ± 1.6%
Insulin (KKA^y mice; [4]): 39.1 ± 8.8 µg/L
Serum Glucose (KKA^y mice; [4]): 31.9 ± 3.6 mM
TG (KKA^y mice; [4]): 2.0 ± 0.3 mM
Total Cholesterol (KKA^y mice; [4]): 3.6 ± 0.3 mM
Body weight (in words) (KKA^y mice; [5]): do not alter body weight
Circulating glucose levels (in words) (KKA^y mice; [5]): decreased
FFA (in words) (KKA^y mice; [5]): decreases the FFA
HbA1c levels (in words) (KKA^y mice; [5]): decreased
Heart weight (in words) (KKA^y mice; [5]): no effect on heart weight
Thromboxane synthase Human platelet Inhibition (%) (Thromboxane synthase): 61%
inhibition at 10 µM (Thromboxane synthase): 43%
pIC50 [1]: 6.51
pKi ([2]; Cheng Prusoff, read-out: PPARγ binding Ki): 5.74 and 5.37
pIC50 ([2]; read-out: PPARγ binding IC50): 5.31 and 4.92
